IC50 data for 33 compounds are collected here from patent US9040530B2, “1,2,4-triazine-6-carboxamide kinase inhibitors” (Portola Pharmaceuticals, Inc., priority 2012, dated 2015).

The term IC50 denotes the concentration at which inhibition is half-maximal.

The experiment concerns the target T1, full length active recombinant SYK enzyme (Homo sapiens, UniProt P43405).
T1 construct: full length active recombinant SYK enzyme (Millipore, Calif.); purchased Millipore
Put plainly: Inhibition of Syk tyrosine phosphorylation activity (LANCE TR-FRET kinase assay). The format is biochemical. The conditions noted are these: 1 nM active SYK enzyme, 550 nM SYK-substrate, 100 μM ATP, 1 hour at room temperature. In general terms: Time-resolved FRET reads energy transfer from a long-lived donor to a nearby acceptor.

Regarding `Cc1ccc(Nc2nc(N[C@H](Cc3ccc(F)cc3)C(N)=O)nnc2C(N)=O)cc1` [Example 189, (R)-3-(1-amino-3-(4-fluorophenyl)-1-oxopropan-2-ylamino)-5-(p-tolylamino)-1,2,4-triazine-6-carboxamide], the 50% inhibitory concentration (IC50) fell in the range of 10 to 100 nM.

Take `Cc1ccc(Nc2nc(N[C@H](Cc3cccc(F)c3)C(N)=O)nnc2C(N)=O)cc1` [Example 190, (R)-3-(1-amino-3-(3-fluorophenyl)-1-oxopropan-2-ylamino)-5-(p-tolylamino)-1,2,4-triazine-6-carboxamide]: the half-inhibitory concentration (IC50) lay in the range of 10 to 100 nM.

For the compound `Cc1ccc(Nc2nc(N[C@@H](C(N)=O)c3ccccc3)nnc2C(N)=O)cc1` [Example 191, (R)-3-(2-amino-2-oxo-1-phenylethylamino)-5-(p-tolylamino)-1,2,4-triazine-6-carboxamide], the 50% inhibitory concentration (IC50) fell in the range of 100 to 1000 nM.

Turning to `CC[C@@H](Nc1nnc(C(N)=O)c(Nc2cccc(Cl)c2)n1)C(N)=O` [Example 194, (R)-3-((1-amino-1-oxobutan-2-yl)amino)-5-((3-chlorophenyl)amino)-1,2,4-triazine-6-carboxamide], the 50% inhibitory concentration (IC50) was in the range of 10 to 100 nM.

With `CC[C@@H](Nc1nnc(C(N)=O)c(Nc2cccc(F)c2)n1)C(N)=O` [Example 195, (R)-3-((1-amino-1-oxobutan-2-yl)amino)-5-((3-fluorophenyl)amino)-1,2,4-triazine-6-carboxamide], the half-inhibitory concentration (IC50) is 10 to 100 nM.

In the case of `CC[C@@H](Nc1nnc(C(N)=O)c(Nc2ccc(C)c(F)c2)n1)C(N)=O` [Example 196, (R)-3-((1-amino-1-oxobutan-2-yl)amino)-5-((3-fluoro-4-methylphenyl)amino)-1,2,4-triazine-6-carboxamide], the IC50 fell in the range of 10 to 100 nM.

On to `CC[C@@H](Nc1nnc(C(N)=O)c(Nc2cc(C)cc(F)c2)n1)C(N)=O` [Example 197, (R)-3-((1-amino-1-oxobutan-2-yl)amino)-5-((3-fluoro-5-methylphenyl)amino)-1,2,4-triazine-6-carboxamide], for which the IC50 lay within 10 to 100 nM.

For `NC(=O)c1nnc(N[C@@H]2CCCC[C@@H]2N)nc1Nc1ccn2ccnc2c1` [Example 198, 3-(((1R,2S)-2-aminocyclohexyl)amino)-5-(imidazo[1,2-a]pyridin-7-ylamino)-1,2,4-triazine-6-carboxamide], the half-inhibitory concentration (IC50) was 1 to 10 nM.

Turning to `CC[C@@H](Nc1nnc(C(N)=O)c(Nc2cncs2)n1)C(N)=O` [Example 199, (R)-3-((1-amino-1-oxobutan-2-yl)amino)-5-(thiazol-5-ylamino)-1,2,4-triazine-6-carboxamide], the IC50 was in the range of 100 to 1000 nM.

Turning to `CC[C@@H](Nc1nnc(C(N)=O)c(Nc2ccc(Cl)cc2)n1)C(N)=O` [Example 200, (R)-3-((1-amino-1-oxobutan-2-yl)amino)-5-((4-chlorophenyl)amino)-1,2,4-triazine-6-carboxamide], the IC50 lay in the range of 10 to 100 nM.

In the case of `NC(=O)c1nnc(N[C@@H]2CCCC(F)(F)[C@@H]2N)nc1Nc1cccc(Cl)c1` [Example 201, 3-(((1R,2R)-2-amino-3,3-difluorocyclohexyl)amino)-5-((3-chlorophenyl)amino)-1,2,4-triazine-6-carboxamide], the half-maximal inhibitory concentration (IC50) was in the range of 10 to 100 nM.

`Cc1cc(F)cc(Nc2nc(N[C@@H]3CCCC(F)(F)[C@@H]3N)nnc2C(N)=O)c1` [Example 202, 3-(((1R,2R)-2-amino-3,3-difluorocyclohexyl)amino)-5-((3-fluoro-5-methylphenyl)amino)-1,2,4-triazine-6-carboxamide]: the IC50 lay in the range of 10 to 100 nM.

As to `CC[C@@H](Nc1nnc(C(N)=O)c(Nc2ccc(C)c(C)c2)n1)C(N)=O` [Example 203, (R)-3-((1-amino-1-oxobutan-2-yl)amino)-5-((3,4-dimethylphenyl)amino)-1,2,4-triazine-6-carboxamide], the IC50 lay in the range of 10 to 100 nM.

For `Cc1ccc(Nc2nc(N[C@@H]3CCCC(F)(F)[C@@H]3N)nnc2C(N)=O)cc1C` [Example 204, 3-(((1R,2R)-2-amino-3,3-difluorocyclohexyl)amino)-5-((3,4-dimethylphenyl)amino)-1,2,4-triazine-6-carboxamide], the IC50 is 10 to 100 nM.

`Cc1ccc(Nc2nc(N[C@@H]3CCCC(F)(F)[C@@H]3N)nnc2C(N)=O)cc1F` [Example 205, 3-(((1R,2R)-2-amino-3,3-difluorocyclohexyl)amino)-5-((3-fluoro-4-methylphenyl)amino)-1,2,4-triazine-6-carboxamide]: the IC50 lay within 10 to 100 nM.

Take `NC(=O)c1nnc(N[C@@H]2CCCC[C@@H]2N)nc1NC1CCc2ccccc2C1` (stereo partly drawn) [Example 206, 3-(((1R,2S)-2-aminocyclohexyl)amino)-5-((1,2,3,4-tetrahydronaphthalen-2-yl)amino)-1,2,4-triazine-6-carboxamide]: the IC50 was in the range of 10 to 100 nM.

Consider `Cc1ccc(Nc2nc(N[C@@H]3CCCC[C@@H]3N)nnc2C(N)=O)cc1C` [Example 207, 3-(((1R,2S)-2-aminocyclohexyl)amino)-5-((3,4-dimethylphenyl)amino)-1,2,4-triazine-6-carboxamide], for which the concentration for half-maximal inhibition (IC50) lay in the range of 1 to 10 nM.

Regarding `Cc1ccc(Nc2nc(N[C@@H](C(N)=O)C(C)C)nnc2C(N)=O)cc1C` [Example 208, (R)-3-((1-amino-3-methyl-1-oxobutan-2-yl)amino)-5-((3,4-dimethylphenyl)amino)-1,2,4-triazine-6-carboxamide], the half-inhibitory concentration (IC50) was 10 to 100 nM.

With `Cc1ccc(Nc2nc(N[C@H](CC(C)C)C(N)=O)nnc2C(N)=O)cc1C` [Example 209, (R)-3-((1-amino-4-methyl-1-oxopentan-2-yl)amino)-5-((3,4-dimethylphenyl)amino)-1,2,4-triazine-6-carboxamide], the IC50 was 1 to 10 nM.

Turning to `Cc1ccc(Nc2nc(N[C@H](CC3CC3)C(N)=O)nnc2C(N)=O)cc1C` [Example 210, (R)-3-((1-amino-3-cyclopropyl-1-oxopropan-2-yl)amino)-5-((3,4-dimethylphenyl)amino)-1,2,4-triazine-6-carboxamide], the IC50 was in the range of 1 to 10 nM.

As for `CC[C@@H](Nc1nnc(C(N)=O)c(Nc2ccc3c(c2)CCC3)n1)C(N)=O` [Example 211, (R)-3-((1-amino-1-oxobutan-2-yl)amino)-5-((2,3-dihydro-1H-inden-5-yl)amino)-1,2,4-triazine-6-carboxamide], the IC50 lay within 1 to 10 nM.

On to `CC[C@@H](Nc1nnc(C(N)=O)c(Nc2ccc3c(c2)CCOC3)n1)C(N)=O` [Example 212, (R)-3-((1-amino-1-oxobutan-2-yl)amino)-5-(isochroman-6-ylamino)-1,2,4-triazine-6-carboxamide], for which the IC50 fell in the range of 10 to 100 nM.

For the compound `NC(=O)c1nnc(N[C@@H]2CCCC(F)(F)[C@@H]2N)nc1Nc1ccc2c(c1)CCC2` [Example 213, 3-(((1R,2R)-2-amino-3,3-difluorocyclohexyl)amino)-5-((2,3-dihydro-1H-inden-5-yl)amino)-1,2,4-triazine-6-carboxamide], the IC50 lay within 10 to 100 nM.

In the case of `NC(=O)c1nnc(N[C@@H]2CCCC(F)(F)[C@@H]2N)nc1Nc1ccc2c(c1)CCOC2` [Example 214, 3-(((1R,2R)-2-amino-3,3-difluorocyclohexyl)amino)-5-(isochroman-6-ylamino)-1,2,4-triazine-6-carboxamide], the concentration for half-maximal inhibition (IC50) was in the range of 10 to 100 nM.

Turning to `CC[C@@H](Nc1nnc(C(N)=O)c(Nc2ccc3c(c2)COC3)n1)C(N)=O` [Example 215, (R)-3-((1-amino-1-oxobutan-2-yl)amino)-5-((1,3-dihydroisobenzofuran-5-yl)amino)-1,2,4-triazine-6-carboxamide], the IC50 fell in the range of 10 to 100 nM.

As for `NC(=O)c1nnc(N[C@@H]2CCCC(F)(F)[C@@H]2N)nc1Nc1ccc2c(c1)COC2` [Example 216, 3-(((1R,2R)-2-amino-3,3-difluorocyclohexyl)amino)-5-((1,3-dihydroisobenzofuran-5-yl)amino)-1,2,4-triazine-6-carboxamide], the IC50 was 10 to 100 nM.

On to `NC(=O)c1nnc(N[C@@H]2CCCC(F)(F)[C@@H]2N)nc1Nc1ccc2c(c1)CS(=O)(=O)C2` [Example 217, 3-(((1R,2R)-2-amino-3,3-difluorocyclohexyl)amino)-5-((2,2-dioxido-1,3-dihydrobenzo[c]thiophen-5-yl)amino)-1,2,4-triazine-6-carboxamide], for which the IC50 was in the range of 100 to 1000 nM.

With `Cc1cc(Nc2nc(N[C@@H]3CCCC(F)(F)[C@@H]3N)nnc2C(N)=O)ccc1Cl` [Example 218, 3-(((1R,2R)-2-amino-3,3-difluorocyclohexyl)amino)-5-((4-chloro-3-methylphenyl)amino)-1,2,4-triazine-6-carboxamide], the half-maximal inhibitory concentration (IC50) lay in the range of 10 to 100 nM.

Turning to `Cc1ccc(Nc2nc(N[C@@H]3CCCC(F)(F)[C@@H]3N)nnc2C(N)=O)cc1Cl` [Example 219, 3-(((1R,2R)-2-amino-3,3-difluorocyclohexyl)amino)-5-((3-chloro-4-methylphenyl)amino)-1,2,4-triazine-6-carboxamide], the half-maximal inhibitory concentration (IC50) was 10 to 100 nM.

For the compound `CC[C@@H](Nc1nnc(C(N)=O)c(Nc2ccc3c(c2)CS(=O)(=O)C3)n1)C(N)=O` [Example 220, (R)-3-((1-amino-1-oxobutan-2-yl)amino)-5-((2,2-dioxido-1,3-dihydrobenzo[c]thiophen-5-yl)amino)-1,2,4-triazine-6-carboxamide], the IC50 lay within 10 to 100 nM.

As to `CC[C@@H](Nc1nnc(C(N)=O)c(Nc2ccc(Cl)c(C)c2)n1)C(N)=O` [Example 221, (R)-3-((1-amino-1-oxobutan-2-yl)amino)-5-((4-chloro-3-methylphenyl)amino)-1,2,4-triazine-6-carboxamide], the IC50 lay in the range of 10 to 100 nM.

On to `CC[C@@H](Nc1nnc(C(N)=O)c(Nc2ccc(C)c(Cl)c2)n1)C(N)=O` [Example 222, (R)-3-((1-amino-1-oxobutan-2-yl)amino)-5-((3-chloro-4-methylphenyl)amino)-1,2,4-triazine-6-carboxamide], for which the IC50 fell in the range of 10 to 100 nM.

`NC(=O)c1nnc(N[C@@H]2CCOC[C@@H]2N)nc1Nc1ccc2c(c1)CCC2` [Example 223, 3-(((3R,4R)-3-aminotetrahydro-2H-pyran-4-yl)amino)-5-((2,3-dihydro-1H-inden-5-yl)amino)-1,2,4-triazine-6-carboxamide]: the concentration for half-maximal inhibition (IC50) was 1 to 10 nM.
